Measured values as given in patent US9187472B2 (AbbVie Inc., priority 2012, dated 2015).

Experiments:
[1] = target: NAMPT (human, recombinant, C-terminally His-tagged) (Homo sapiens, UniProt P43490); test: Time-Resolved Fluorescence Resonance Energy Transfer (TR-FRET) Binding Assay of NAMPT; conditions: without substrates; 6.8 nM NAMPT, 200 nM probe, 3 hours equilibration
Procedure: Determination of the utility of compounds having Formula (I) as binders to and inhibitors of NAMPT was performed using Time-Resolved Fluorescence Resonance Energy Transfer (TR-FRET) binding assays.
Time-Resolved Fluorescence Resonance Energy Transfer (TR-FRET) Binding Assay of NAMPT
Test compounds were serially diluted (typically 11 half log dilutions) in neat DMSO to 50× final concentrations prior to dilution with assay buffer (50 mM HEPES (NaOH), pH 7.5, 100 mM NaCl, 10 mM MgCl2, 1 mM DTT, 1% Glycerol) to 3× and 6% DMSO. Six μL were transferred to 384-well low-volume plates (Owens Corning #3673). To this, […] of a 1.5× solution containing enzyme, probe and antibody were added. Final concentrations in the 18 μL, reactions were 1× assay buffer, 2% DMSO, 6.8 nM NAMPT (human, recombinant, C-terminally His-tagged), 200 nM probe (a potent nicotinamide-competitive inhibitor conjugated to Oregon Green 488) and 1 nM Tb-anti-His antibody (Invitrogen # PV5895). Reactions were equilibrated at room temperature for 3 hours prior to reading on an Envision multi-label plate reader (Perkin Elmer; Ex=337 nm, Em=520 and 495 nm). Time-resolved FRET ratios (Em520/Em495) were normalized to controls, plotted as a function of compound concentration and fit with the four-parameter logistic equation to determine IC50s.

NAMPT = NAMPT (Homo sapiens, UniProt P43490); test: TR-FRET Binding Assay of NAMPT with PRPP; conditions: with 200 μM PRPP and 2.5 mM ATP; 2 nM NAMPT, 2 nM probe, 16 hours equilibration
Procedure: Time-Resolved Fluorescence Resonance Energy Transfer (TR-FRET) Binding Assay of NAMPT with PRPP
Compound handling and data processing were identical to the assay in the absence of substrates (above). Final concentrations were 1× assay buffer, 2% DMSO, 2 nM NAMPT, 2 nM probe, 1 nM Tb-anti-His antibody (Invitrogen # PV5895), 200 μM PRPP and 2.5 mM ATP. Reactions were equilibrated for 16 hours prior to measurement to allow for potential enzymatic modification of test compounds.

PC3 cells = test: NAMPT Cell Proliferation Assay; format: cell-based; conditions: Homo sapiens, PC-3, 120 h, 5 days incubation, cell viability by Cell Titer Glo
Method in brief: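 Cell Titer Glo viability after 5-day exposure (37° C, 5% CO2); PC3, 500 cells/well, RPMI + 10% heat-inactivated FBS, overnight attachment before dosing. Dose range 10 μM to 1×10^−5 μM, 10-fold steps. IC50 = sigmoidal fit of % inhibition.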

Sequence of NAMPT (human, recombinant, C-terminally His-tagged) (P43490 whole entry): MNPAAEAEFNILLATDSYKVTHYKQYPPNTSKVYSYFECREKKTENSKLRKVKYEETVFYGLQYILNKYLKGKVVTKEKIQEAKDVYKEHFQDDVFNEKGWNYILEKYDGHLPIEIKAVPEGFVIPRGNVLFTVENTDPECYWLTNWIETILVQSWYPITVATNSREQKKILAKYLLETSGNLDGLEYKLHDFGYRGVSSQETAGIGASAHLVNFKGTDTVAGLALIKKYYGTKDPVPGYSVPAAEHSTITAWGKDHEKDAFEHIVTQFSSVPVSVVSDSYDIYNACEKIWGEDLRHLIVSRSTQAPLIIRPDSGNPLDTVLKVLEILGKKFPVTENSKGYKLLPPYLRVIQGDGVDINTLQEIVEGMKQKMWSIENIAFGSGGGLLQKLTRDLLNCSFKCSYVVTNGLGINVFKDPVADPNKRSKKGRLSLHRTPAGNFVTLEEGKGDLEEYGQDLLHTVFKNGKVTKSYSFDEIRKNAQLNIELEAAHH
Sequence of NAMPT (P43490 whole entry): as above

CC(C)CCNC(=O)c1ccc(NC(=O)Nc2ccc3nccn3c2)cc1 [Example 1, 4-[(imidazo[1,2-a]pyridin-6-ylcarbamoyl)amino]-N-(3-methylbutyl)benzamide]
IC50 [1]: 0.0921 µM | IC50 (NAMPT): 0.00072 µM | IC50 (PC3 cells): 0.0609 µM

CC(C)CCNC(=O)c1ccc(NC(=O)Nc2ccn3ccnc3c2)cc1 [Example 2, 4-[(imidazo[1,2-a]pyridin-7-ylcarbamoyl)amino]-N-(3-methylbutyl)benzamide]
IC50 [1]: 0.854 µM | IC50 (NAMPT): 0.0398 µM | IC50 (PC3 cells): > 10 µM

O=C(CC1CCCC1)Nc1ccc(NC(=O)Nc2ccc3nccn3c2)cc1 [Example 3, 2-cyclopentyl-N-{4-[(imidazo[1,2-a]pyridin-6-ylcarbamoyl)amino]phenyl}acetamide]
IC50 [1]: 0.0316 µM | IC50 (NAMPT): 0.000282 µM | IC50 (PC3 cells): 0.0367 µM

O=C(Nc1ccc(C(=O)NCCc2ccccc2)cc1)Nc1ccc2nccn2c1 [Example 4, 4-[(imidazo[1,2-a]pyridin-6-ylcarbamoyl)amino]-N-(2-phenylethyl)benzamide]
IC50 [1]: 0.413 µM | IC50 (NAMPT): 0.000516 µM | IC50 (PC3 cells): 0.935 µM

O=C(Nc1ccc(C(=O)NCCN2CCOCC2)cc1)Nc1ccc2nccn2c1 [Example 5, 4-[(imidazo[1,2-a]pyridin-6-ylcarbamoyl)amino]-N-[2-(morpholin-4-yl)ethyl]benzamide]
IC50 [1]: 2.5 µM | IC50 (NAMPT): 0.000684 µM | IC50 (PC3 cells): 0.74 µM

CC(C)(CO)NC(=O)c1ccc(NC(=O)Nc2ccc3nccn3c2)cc1 [Example 6, N-(1-hydroxy-2-methylpropan-2-yl)-4-[(imidazo[1,2-a]pyridin-6-ylcarbamoyl)amino]benzamide]
IC50 [1]: 2.91 µM | IC50 (NAMPT): 0.000964 µM | IC50 (PC3 cells): 6.65 µM

O=C(Nc1ccc(C(=O)NCc2ccccc2)cc1)Nc1ccc2nccn2c1 [Example 7, N-benzyl-4-[(imidazo[1,2-a]pyridin-6-ylcarbamoyl)amino]benzamide]
IC50 [1]: 0.183 µM | IC50 (NAMPT): 0.000516 µM | IC50 (PC3 cells): 0.527 µM

O=C(Nc1ccc(C(=O)NCC2CCCC2)cc1)Nc1ccc2nccn2c1 [Example 8, N-(cyclopentylmethyl)-4-[(imidazo[1,2-a]pyridin-6-ylcarbamoyl)amino]benzamide]
IC50 [1]: 0.114 µM | IC50 (NAMPT): 0.000702 µM | IC50 (PC3 cells): 0.0702 µM

O=C(Nc1ccc(C(=O)NCCCN2CCCCC2)cc1)Nc1ccc2nccn2c1 [Example 9, 4-[(imidazo[1,2-a]pyridin-6-ylcarbamoyl)amino]-N-[3-(piperidin-1-yl)propyl]benzamide]
IC50 [1]: 1.72 µM | IC50 (NAMPT): 0.000459 µM | IC50 (PC3 cells): 0.649 µM

O=C(Nc1ccc(C(=O)NCCOc2ccccc2)cc1)Nc1ccc2nccn2c1 [Example 10, 4-[(imidazo[1,2-a]pyridin-6-ylcarbamoyl)amino]-N-(2-phenoxyethyl)benzamide]
IC50 [1]: 0.197 µM | IC50 (NAMPT): 0.000457 µM | IC50 (PC3 cells): 0.331 µM

O=C(Nc1ccc(C(=O)NCCN2CCCC2)cc1)Nc1ccc2nccn2c1 [Example 11, 4-[(imidazo[1,2-a]pyridin-6-ylcarbamoyl)amino]-N-[2-(pyrrolidin-1-yl)ethyl]benzamide]
IC50 [1]: 7.6 µM | IC50 (NAMPT): 0.000271 µM | IC50 (PC3 cells): 4.53 µM

CC(C)OCCNC(=O)c1ccc(NC(=O)Nc2ccc3nccn3c2)cc1 [Example 12, -[(imidazo[1,2-a]pyridin-6-ylcarbamoyl)amino]-N-[2-(propan-2-yloxy)ethyl]benzamide]
IC50 [1]: 0.486 µM | IC50 (NAMPT): 0.000292 µM | IC50 (PC3 cells): 0.213 µM

CC(C)(O)CNC(=O)c1ccc(NC(=O)Nc2ccc3nccn3c2)cc1 [Example 13, N-(2-hydroxy-2-methylpropyl)-4-[(imidazo[1,2-a]pyridin-6-ylcarbamoyl)amino]benzamide]
IC50 [1]: 0.653 µM | IC50 (NAMPT): 0.000663 µM | IC50 (PC3 cells): 1.17 µM

COc1ccc(C(CO)NC(=O)c2ccc(NC(=O)Nc3ccc4nccn4c3)cc2)cc1 (stereo not drawn) [Example 14, N-[2-hydroxy-1-(4-methoxyphenyl)ethyl]-4-[(imidazo[1,2-a]pyridin-6-ylcarbamoyl)amino]benzamide]
IC50 [1]: 0.741 µM | IC50 (NAMPT): 0.00122 µM | IC50 (PC3 cells): 0.644 µM

O=C(Nc1ccc(C(=O)NCCN2CCCC2=O)cc1)Nc1ccc2nccn2c1 [Example 15, 4-[(imidazo[1,2-a]pyridin-6-ylcarbamoyl)amino]-N-[2-(2-oxopyrrolidin-1-yl)ethyl]benzamide]
IC50 [1]: 1.76 µM | IC50 (NAMPT): 0.000841 µM | IC50 (PC3 cells): 3.97 µM

O=C(Nc1ccc(C(=O)NCC2CCCO2)cc1)Nc1ccc2nccn2c1 (stereo not drawn) [Example 16]
IC50 [1]: 0.409 µM | IC50 (NAMPT): 0.000396 µM | IC50 (PC3 cells): 0.325 µM

CCCNC(=O)c1ccc(NC(=O)Nc2ccc3nccn3c2)cc1 [Example 17, 4-[(imidazo[1,2-a]pyridin-6-ylcarbamoyl)amino]-N-propylbenzamide]
IC50 [1]: 2.96 µM | IC50 (NAMPT): 0.000401 µM | IC50 (PC3 cells): 4.96 µM

O=C(Nc1ccc(C(=O)NCCCN2CCOCC2)cc1)Nc1ccc2nccn2c1 [Example 18, 4-[(imidazo[1,2-a]pyridin-6-ylcarbamoyl)amino]-N-[3-(morpholin-4-yl)propyl]benzamide]
IC50 [1]: 2.73 µM | IC50 (NAMPT): 0.000418 µM | IC50 (PC3 cells): 0.36 µM

O=C(Nc1ccc(C(=O)Nc2ccccc2)cc1)Nc1ccc2nccn2c1 [Example 19, 4-[(imidazo[1,2-a]pyridin-6-ylcarbamoyl)amino]-N-phenylbenzamide]
IC50 [1]: 2.68 µM | IC50 (NAMPT): 0.000921 µM | IC50 (PC3 cells): 6.63 µM

CCC(C)CNC(=O)c1ccc(NC(=O)Nc2ccc3nccn3c2)cc1 (stereo not drawn) [Example 20, 4-[(imidazo[1,2-a]pyridin-6-ylcarbamoyl)amino]-N-(2-methylbutyl)benzamide]
IC50 [1]: 0.404 µM | IC50 (NAMPT): 0.000169 µM | IC50 (PC3 cells): 0.102 µM

O=C(Nc1ccc(C(=O)NCCCN2CCCC2=O)cc1)Nc1ccc2nccn2c1 [Example 21, 4-[(imidazo[1,2-a]pyridin-6-ylcarbamoyl)amino]-N-[3-(2-oxopyrrolidin-1-yl)propyl]benzamide]
IC50 [1]: 0.433 µM | IC50 (NAMPT): 0.000887 µM | IC50 (PC3 cells): 0.899 µM

O=C(Nc1ccc(C(=O)NCC2CCOCC2)cc1)Nc1ccc2nccn2c1 [Example 22]
IC50 [1]: 0.399 µM | IC50 (NAMPT): 0.000277 µM | IC50 (PC3 cells): 0.142 µM

O=C(Nc1ccc(C(=O)NCC2CCCCO2)cc1)Nc1ccc2nccn2c1 (stereo not drawn) [Example 23]
IC50 [1]: 0.281 µM | IC50 (NAMPT): 0.000409 µM | IC50 (PC3 cells): 0.0415 µM

O=C(Nc1ccc(C(=O)NCC2CCS(=O)(=O)C2)cc1)Nc1ccc2nccn2c1 (stereo not drawn) [Example 24, N-[(1,1-dioxidotetrahydrothiophen-3-yl)methyl]-4-[(imidazo[1,2-a]pyridin-6-ylcarbamoyl)amino]benzamide]
IC50 [1]: 0.167 µM | IC50 (NAMPT): 0.000363 µM | IC50 (PC3 cells): 0.691 µM

CC(C)(C)OC(=O)N1CC=C(c2ccc(NC(=O)Nc3ccc4nccn4c3)cc2)CC1 [Example 25, tert-butyl 4-{4-[(imidazo[1,2-a]pyridin-6-ylcarbamoyl)amino]phenyl}-3,6-dihydropyridine-1(2H)-carboxylate]
IC50 [1]: 0.508 µM | IC50 (NAMPT): 0.000714 µM | IC50 (PC3 cells): 0.146 µM

COCCC(=O)N(Cc1ccc(C#N)cc1)c1ncc(C(=O)NCc2ccn3ccnc3c2)s1 [Example 57, 2-[(4-cyanobenzyl)(3-methoxypropanoyl)amino]-N-(imidazo[1,2-a]pyridin-7-ylmethyl)-1,3-thiazole-5-carboxamide]
IC50 [1]: 0.0058 µM | IC50 (PC3 cells): 0.00576 µM

O=C(NCc1ccn2ccnc2c1)c1ccc(-c2cnn(C3CCOCC3)c2)s1 [Example 410, N-(imidazo[1,2-a]pyridin-7-ylmethyl)-5-[1-(tetrahydro-2H-pyran-4-yl)-1H-pyrazol-4-yl]thiophene-2-carboxamide]
IC50 [1]: 0.0207 µM | IC50 (NAMPT): 0.000169 µM

CC1(Cn2cc(-c3ccc(C(=O)NCc4ccn5ccnc5c4)s3)cn2)CCN(C(=O)CCOCCOCCOCCOCCN)CC1 [Example 1165, 5-(1-{[1-(15-amino-4,7,10,13-tetraoxapentadecan-1-oyl)-4-methylpiperidin-4-yl]methyl}-1H-pyrazol-4-yl)-N-(imidazo[1,2-a]pyridin-7-ylmethyl)thiophene-2-carboxamide]
IC50 (PC3 cells): 0.577 µM

CC1(Cn2cc(-c3ccc(C(=O)NCc4ccn5ccnc5c4)s3)cn2)CCN(C(=O)CCNC(=O)CSC[C@H](N)C(=O)O)CC1 [Example 1166, S-{2-[(3-{4-[(4-{5-[(imidazo[1,2-a]pyridin-7-ylmethyl)carbamoyl]thiophen-2-yl}-1H-pyrazol-1-yl)methyl]-4-methylpiperidin-1-yl}-3-oxopropyl)amino]-2-oxoethyl}-L-cysteine]
IC50 (PC3 cells): 0.0261 µM
